Experimental data as given in patent US12427146B2, “C-terminal SRC kinase inhibitors” (INVENTISBIO CO., LTD., priority 2018, dated 2025).

Assays:
CSK protein = CSK protein (Homo sapiens (Human), UniProt P41240); assay: CSK Inhibition Assay; assay type: biochemical
Description: Test compound was dissolved in DMSO at 10 mM. 45 uL of compound was transferred into a 384-well compound source plate (LABCYTE cat #P-05525) and serially diluted at 1:3 ratio to create a 11-point dilutions. The same volume of DMSO was adopted as high control. 20 nL of these compounds DMSO dilutes were dispensed into a new 384-well assay plate by Echo 550. […] 15 uL of kinase assay buffer containing CSK protein and substrate was transferred to assay plate and incubated at RT for 30 minutes. Kinase assay buffer supplemented with substrate peptides was employed as low control to monitor the background. 4 μM of ATP was prepared in kinase assay buffer and 5 μL of ATP solution was added to each well to start the reaction. The assay plate was incubated at 25° C. for 90 minutes and the reaction was stopped by adding 40 μL of 0.5 M EDTA.
(§1) Phosphorylated fluorescent-tagged peptides were differentiated from non-phosphorylated peptides by separating using Caliper EZ Reader II and the detection was directly converted to conversion ratio.
(§2) For estimation of IC50, the % substrate conversion values are transformed to % Inhibition Ratio by applying the following equation: […]

LCK protein = LCK protein (Homo sapiens (Human), UniProt P06239); assay: LCK Inhibition Assay; assay type: biochemical
LCK protein, sequence (P06239 whole entry): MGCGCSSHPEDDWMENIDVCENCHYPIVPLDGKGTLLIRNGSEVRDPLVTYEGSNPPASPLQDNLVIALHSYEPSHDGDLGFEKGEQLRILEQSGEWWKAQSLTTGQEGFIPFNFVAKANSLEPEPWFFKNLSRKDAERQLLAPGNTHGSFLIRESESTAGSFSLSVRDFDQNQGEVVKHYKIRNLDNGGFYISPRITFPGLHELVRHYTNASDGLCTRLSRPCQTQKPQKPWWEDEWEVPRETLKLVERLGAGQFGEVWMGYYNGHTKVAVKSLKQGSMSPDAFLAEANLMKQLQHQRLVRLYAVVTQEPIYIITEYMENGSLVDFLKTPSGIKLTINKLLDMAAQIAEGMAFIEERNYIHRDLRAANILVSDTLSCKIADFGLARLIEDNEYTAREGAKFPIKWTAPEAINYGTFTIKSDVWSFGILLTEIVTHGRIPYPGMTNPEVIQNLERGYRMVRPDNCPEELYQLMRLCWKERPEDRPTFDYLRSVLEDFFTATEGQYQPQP
Description: Test compound was dissolved in DMSO at 10 mM. 45 uL of compound was transfer into a 384-well compound source plate (LABCYTE cat #P-05525) and serially diluted at 1:3 ratio to create a 11-point dilutions. The same volume of DMSO was adopted as high control. 20 nL of these compounds DMSO dilutes were dispensed into a new 384-well assay plate by Echo 550. LCK protein (0.50 nM, Cama Biosciences, cat #08-170), florescent labeled substrate FLPeptide4 (2 μM, PerkinElmer, cat #760348) was prepared in kinase assay buffer (50 mM HEPES (pH 7.5), 10 mM MgCl2, 0.01% Brij-35, 2 mM DTT and 0.005 mg/ml BSA). 15 uL of kinase assay buffer containing LCK protein and substrate was transferred to assay plate and incubate at RT for 30 minutes. Kinase assay buffer supplemented with substrate peptides was employed as low control to monitor the background. 400 μM ATP was prepared in kinase assay buffer and 5 μL of ATP solution was added to each well to start the reaction. The assay plate was incubated at 25° C. for 90 minutes and the reaction was stopped by adding 40 μL of 0.5 M EDTA.
as §1, §2

CSK protein, sequence (P41240 whole entry): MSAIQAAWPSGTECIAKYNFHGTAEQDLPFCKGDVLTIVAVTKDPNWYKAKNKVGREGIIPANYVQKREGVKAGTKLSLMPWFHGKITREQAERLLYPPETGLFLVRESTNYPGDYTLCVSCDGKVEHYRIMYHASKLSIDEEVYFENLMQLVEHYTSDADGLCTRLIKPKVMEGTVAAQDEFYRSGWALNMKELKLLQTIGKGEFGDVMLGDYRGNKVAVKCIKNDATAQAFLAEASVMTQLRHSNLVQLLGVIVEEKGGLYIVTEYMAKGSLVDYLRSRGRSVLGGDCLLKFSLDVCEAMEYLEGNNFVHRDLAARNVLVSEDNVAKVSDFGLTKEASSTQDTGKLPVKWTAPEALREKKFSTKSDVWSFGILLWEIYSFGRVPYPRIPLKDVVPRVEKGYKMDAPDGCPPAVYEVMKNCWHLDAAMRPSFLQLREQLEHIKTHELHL

SMILES	IC50 (CSK protein)	IC50 (LCK protein)	selectivity over LCK (CSK protein; CSK inhibition over LCK)
Nc1nccc(-c2sc(-c3ccc(C(F)(F)F)cc3)nc2-c2cccc(NS(=O)(=O)c3c(F)cccc3F)c2F)n1 [Compound 4]	328 nM	> 1000 nM	–
COc1ccc(-c2nc(-c3cccc(NS(=O)(=O)c4c(F)cccc4F)c3F)c(-c3ccnc(N)n3)s2)cc1 [Compound 5]	62.7 nM	> 1000 nM	–
COc1cc(N2CCOCC2)ccc1Nc1nccc(-c2sc(-c3ccccc3)nc2-c2cccc(NS(=O)(=O)c3c(F)cccc3F)c2F)n1 [Compound 9]	50.3 nM	> 1000 nM	–
CCn1cc(-c2nc(-c3cccc(NS(=O)(=O)c4c(F)cccc4F)c3F)c(-c3ccnc(N)n3)s2)cn1 [Compound 10]	30.1 nM	100 to 1000 nM	–
Nc1nccc(-c2sc(-c3cncc(Cl)c3)nc2-c2cccc(NS(=O)(=O)c3c(F)cccc3F)c2F)n1 [Compound 11]	103 nM	> 1000 nM	–
Nc1nccc(-c2sc(-c3ccc(F)cn3)nc2-c2cccc(NS(=O)(=O)c3c(F)cccc3F)c2F)n1 [Compound 12]	61.6 nM	> 1000 nM	–
Cc1ccc(-c2nc(-c3cccc(NS(=O)(=O)c4c(F)cccc4F)c3F)c(-c3ccnc(N)n3)s2)nn1 [Compound 13]	51 nM	> 1000 nM	–
Nc1nccc(-c2sc(-c3ccc(F)cc3)nc2-c2cccc(NS(=O)(=O)c3c(F)cccc3F)c2F)n1 [Compound 14]	55.3 nM	> 1000 nM	–
Nc1nccc(-c2sc(-c3cccc(F)c3)nc2-c2cccc(NS(=O)(=O)c3c(F)cccc3F)c2F)n1 [Compound 15]	51.4 nM	> 1000 nM	–
COC(=O)N[C@@H](C)CNc1nccc(-c2sc(-c3ccccc3)nc2-c2cccc(NS(=O)(=O)c3c(F)cccc3F)c2F)n1 [Compound 16]	63.6 nM	> 1000 nM	–
Nc1nccc(-c2sc(-c3cncc(F)c3)nc2-c2cccc(NS(=O)(=O)c3c(F)cccc3F)c2F)n1 [Compound 17]	25 nM	> 1000 nM	–
Nc1nccc(-c2sc(-c3ccccc3)nc2-c2cccc(NS(=O)(=O)c3c(F)cccc3F)c2)n1 [Compound 18]	144 nM	> 1000 nM	–
COc1cc(NS(=O)(=O)c2c(F)cccc2F)cc(-c2nc(-c3ccccc3)sc2-c2ccnc(N)n2)c1 [Compound 19]	28.2 nM	100 to 1000 nM	–
COc1cc(NS(=O)(=O)c2c(F)cccc2F)cc(-c2nc(-c3cncc(F)c3)sc2-c2ccnc(N)n2)c1 [Compound 21]	–	100 to 1000 nM	–
Nc1nccc(-c2sc(-c3ccccc3)nc2-c2cccc(NS(=O)(=O)c3ccccc3)c2F)n1 [Compound 24]	501 nM	> 1000 nM	–
Nc1nccc(-c2sc(-c3ccccc3)nc2-c2cccc(NS(=O)(=O)c3c(F)cccc3F)n2)n1 [Compound 26]	> 10000 nM	–	–
Nc1nccc(-c2sc(-c3cncnc3)nc2-c2cccc(NS(=O)(=O)c3c(F)cccc3F)c2F)n1 [Compound 29]	20.5 nM	> 1000 nM	–
COc1ccc(-c2nc(-c3cccc(NS(=O)(=O)c4c(F)cccc4F)c3F)c(-c3ccnc(N)n3)s2)nc1 [Compound 30]	41 nM	100 to 1000 nM	–
O=S(=O)(Nc1cccc(-c2nc(-c3ccc(F)cn3)sc2-c2ccnc(NC3CCCC3)n2)c1F)c1c(F)cccc1F [Compound 31]	> 10000 nM	–	–
COc1ccc(Nc2nccc(-c3sc(-c4ccc(F)cn4)nc3-c3cccc(NS(=O)(=O)c4c(F)cccc4F)c3F)n2)cn1 [Compound 32]	2.9 nM	100 to 1000 nM	–
COc1ccccc1Nc1nccc(-c2sc(-c3ccc(F)cn3)nc2-c2cccc(NS(=O)(=O)c3c(F)cccc3F)c2F)n1 [Compound 33]	595 nM	> 1000 nM	–
Cc1cc(F)c(S(=O)(=O)Nc2cccc(-c3nc(-c4ccccc4)sc3-c3ccnc(N)n3)c2F)c(F)c1 [Compound 35]	81.2 nM	> 1000 nM	–

SMILES	IC50 (CSK protein)	IC50 (LCK protein)	selectivity over LCK (CSK protein; CSK inhibition over LCK)
Cc1ccnc(-c2nc(-c3cccc(NS(=O)(=O)c4c(F)cccc4F)c3F)c(-c3ccnc(N)n3)s2)c1 [Compound 40]	48 nM	> 1000 nM	–
CC(=O)N[C@@H](C)CNc1nccc(-c2sc(-c3ccccc3)nc2-c2cccc(NS(=O)(=O)c3c(F)cccc3F)c2F)n1 [Compound 41]	87.3 nM	> 1000 nM	–
O=S(=O)(Nc1cccc(-c2nc(-c3ccccc3)sc2-c2ccnc(Nc3cccnc3)n2)c1F)c1c(F)cccc1F [Compound 42]	37.7 nM	100 to 1000 nM	–
Cc1ccc(-c2nc(-c3cccc(NS(=O)(=O)c4c(F)cccc4F)c3F)c(-c3ccnc(N)n3)s2)nc1 [Compound 43]	37.6 nM	100 to 1000 nM	–
C[C@H](Nc1nccc(-c2sc(-c3ccccc3)nc2-c2cccc(NS(=O)(=O)c3c(F)cccc3F)c2F)n1)C(N)=O [Compound 44]	43.9 nM	> 1000 nM	–
CNc1nccc(-c2sc(-c3ccccc3)nc2-c2cccc(NS(=O)(=O)c3c(F)cccc3F)c2F)n1 [Compound 46]	27.3 nM	> 1000 nM	–
Cc1cncc(-c2nc(-c3cccc(NS(=O)(=O)c4c(F)cccc4F)c3F)c(-c3ccnc(N)n3)s2)c1 [Compound 47]	29.4 nM	100 to 1000 nM	–
C[C@@H](Nc1nccc(-c2sc(-c3ccccc3)nc2-c2cccc(NS(=O)(=O)c3c(F)cccc3F)c2F)n1)C(N)=O [Compound 49]	345 nM	–	–
CNc1nccc(-c2sc(-c3ccccc3)nc2-c2cccc(NS(=O)(=O)c3c(F)ccc(C)c3F)c2F)n1 [Compound 51]	33.1 nM	> 1000 nM	–
Cc1ccc(F)c(S(=O)(=O)Nc2cccc(-c3nc(-c4cc(F)ccn4)sc3-c3ccnc(N)n3)c2F)c1F [Compound 52]	19.5 nM	> 1000 nM	–
CNc1nccc(-c2sc(-c3cncc(F)c3)nc2-c2cccc(NS(=O)(=O)c3c(F)ccc(C)c3F)c2F)n1 [Compound 53]	15.6 nM	> 1000 nM	–
Cn1c(-c2ccccc2)nc(-c2ccnc(N)n2)c1-c1cccc(NS(=O)(=O)c2c(F)cccc2F)c1F [Compound 86]	1220 nM	–	–
Cn1c(-c2ccccc2)nc(-c2cccc(NS(=O)(=O)c3c(F)cccc3F)c2F)c1-c1ccnc(N)n1 [Compound 87]	947 nM	–	–
CCn1c(-c2ccccc2)nc(-c2ccnc(N)n2)c1-c1cccc(NS(=O)(=O)c2c(F)cccc2F)c1F [Compound 89]	321 nM	–	–
COc1ccn2c(-c3ccnc(N)n3)c(-c3cccc(NS(=O)(=O)c4c(F)ccc(C)c4F)c3F)nc2c1 [Compound 99]	105 nM	–	–
CC(C)(C)c1nc(-c2cccc(NS(=O)(=O)c3c(F)cccc3F)c2F)c(-c2ccnc(N)n2)s1 [Dabrafenib, reference compound]	~50 nM	–	about 10 fold
Nc1nccc(-c2sc(-c3cccc(N4CCC4)n3)nc2-c2cccc(NS(=O)(=O)c3c(F)cccc3F)c2F)n1 [compound 1]	1060 nM	–	–
O=S(=O)(Nc1cccc(-c2nc(-c3ccccc3)sc2-c2ccnc(NC3CCNCC3)n2)c1F)c1c(F)cccc1F [compound 8]	> 10000 nM	–	–
CN(C)c1nccc(-c2sc(-c3ccccc3)nc2-c2cccc(NS(=O)(=O)c3c(F)cccc3F)c2F)n1 [compound 37]	> 10000 nM	–	–
Nc1nccc(-c2sc(-c3ccccc3)nc2-c2cccc(NS(=O)(=O)c3ccc4ocnc4c3)c2F)n1 [compound 57]	251 nM	–	–
CCn1c(-c2ccccc2)nc(-c2cccc(NS(=O)(=O)c3c(F)cccc3F)c2F)c1-c1ccnc(N)n1 [compound 88]	> 10000 nM	–	–
